From article PMC5177912, “Glycosides from edible sea cucumbers stimulate macrophages via purinergic receptors” (Scientific Reports, 2016) come the findings set out here.

Molecules are shown by their SMILES. pKd: −log10 of the molar value. Where a name gives a salt, the structure may show the parent alone.

This test deals with T1, P2X4 receptor (recombinant mouse P2X4 purinoceptor) (Mus musculus, UniProt Q9JJX6).
T1 construct: gene P2rx4; the complete extracellular domain, N-terminal His-6 tag, expressed in E. coli
T1 sequence (Q9JJX6 55-338): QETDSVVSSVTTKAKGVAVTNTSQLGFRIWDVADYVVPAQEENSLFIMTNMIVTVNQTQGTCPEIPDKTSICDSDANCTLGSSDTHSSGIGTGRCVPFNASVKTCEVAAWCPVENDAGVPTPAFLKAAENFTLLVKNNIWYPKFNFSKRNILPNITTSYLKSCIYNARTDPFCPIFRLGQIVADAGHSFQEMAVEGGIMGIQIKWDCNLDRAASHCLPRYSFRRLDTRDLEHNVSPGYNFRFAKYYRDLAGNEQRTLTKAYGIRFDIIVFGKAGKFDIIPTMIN
Nature of the test: SPR (Biacore T200, P2X4 immobilized on CM5 chip). The format is binding.

By pKd is commonly meant the Kd on a negative log10 scale, so that one unit is a factor of ten. Turning to `C=C(C)CCC[C@]1(C)OC(=O)[C@]23CCC4C(=CC[C@H]5C(C)(C)[C@@H](O[C@@H]6OC[C@@H](OS(=O)(=O)O)[C@H](O)[C@H]6O[C@@H]6O[C@H](C)[C@@H](O[C@@H]7O[C@H](CO)[C@@H](O)[C@H](O[C@@H]8O[C@H](CO)[C@@H](O)[C@H](OC)[C@H]8O)[C@H]7O)[C@H](O)[C@H]6O[C@@H]6OC[C@@H](O)[C@H](O)[C@H]6O)CC[C@]45C)[C@]2(C)CC(=O)[C@@H]31` (stereo partly drawn) [CA2-2, 3-O-{3-O-methyl-β-D-glucopyranosyl-(1→3)-β-D-glucopyranosyl-(1→4)-[β-D-xylopyranosyl-(1→2)]-β-D-quinovopyranosyl-(1→2)−4-O-sodium sulfate-β-D-xylopyranosyl}−16-keto-holosta-7,25-diene], the pKd is 4.34.
